In US20230233569A1 (Revolution Medicines, Inc., priority 2020, published 2023):
Read-outs that look alike come from different tables or passages of the source.

Columns and labels:
NCI-H358 (K-Ras G12C) = test: CellTiter-Glo cell viability assay, 5-day treatment; format: cell-based; details: Homo sapiens, NCI-H358, 120 h, 5-day treatment; read-out: H358 Cell Viability assay data (K-Ras G12C, IC50)
Summary of the method: (§1)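 Compounds were dispensed directly onto seeded cells and incubated for 5 days, then plates were equilibrated to room temperature for about 30 minutes before luminescence reading. Signals were expressed as percent of the mean DMSO control and fitted with a four-parameter logistic curve.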

Capan-1 (K-Ras G12V) = test: as above; format: cell-based; details: Homo sapiens, CAPAN-1, 120 h, 5-day treatment; read-out: Capan-1 Cell Viability assay data (K-Ras G12V, IC50)
Summary of the method: as §1

NRAS Q61R = NRAS Q61R (Homo sapiens, UniProt P01111+P62937, Q61R); test: Disruption of BRAF RBD interaction with Ras (FRET / MOA assay, with Cyclophilin A); format: biochemical; details: NRAS Q61R; read-out: NRAS Q61R FRET data IC50
Chain of NRAS Q61R (P01111 whole entry Q61R): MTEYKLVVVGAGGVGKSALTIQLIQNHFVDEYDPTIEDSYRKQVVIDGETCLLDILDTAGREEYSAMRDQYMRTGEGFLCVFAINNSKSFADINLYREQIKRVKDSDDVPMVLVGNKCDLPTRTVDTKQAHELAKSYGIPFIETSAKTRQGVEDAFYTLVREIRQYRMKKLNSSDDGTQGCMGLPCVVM
Chain of NRAS Q61R (P62937 whole entry): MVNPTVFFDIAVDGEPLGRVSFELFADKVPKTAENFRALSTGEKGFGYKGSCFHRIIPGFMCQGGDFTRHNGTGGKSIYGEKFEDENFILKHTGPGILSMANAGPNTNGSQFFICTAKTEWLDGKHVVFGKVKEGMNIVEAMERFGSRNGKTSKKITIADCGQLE
Summary of the method: (§2)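 TR-FRET in 25 mM HEPES pH 7.3, 100 mM NaCl, 5 mM MgCl2, 0.1% BSA: 25 μM Cyclophilin A, 12.5 nM His6-Ras-GMPPNP, 50 nM GST-BRAF RBD with compound (10-point 3-fold series from 30 μM), 3 h at 25° C. Anti-His Eu/anti-GST APC added, 1.5 h more; IC50 from decreased FRET ratio versus DMSO.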

KRAS Q61H = KRAS Q61H (Homo sapiens, UniProt P01116+P62937, Q61H); test: as above; format: biochemical; details: KRAS Q61H; read-out: KRAS Q61H FRET data IC50
Chain of KRAS Q61H (P01116 1-169 isoform P01116-2 Q61H limits assumed): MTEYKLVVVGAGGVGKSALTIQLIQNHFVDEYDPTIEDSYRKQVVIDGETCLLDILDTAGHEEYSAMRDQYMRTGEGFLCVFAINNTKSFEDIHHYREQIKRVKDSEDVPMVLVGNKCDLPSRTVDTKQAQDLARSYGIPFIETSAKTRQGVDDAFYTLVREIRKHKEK
Chain of KRAS Q61H (P62937 whole entry): as the sequence (P62937 whole entry) above
Summary of the method: as §2

NRAS Q61K = NRAS Q61K (Homo sapiens, UniProt P01111+P62937, Q61K); test: as above; format: biochemical; details: NRAS Q61K; read-out: NRAS Q61K FRET data IC50
Chain of NRAS Q61K (P01111 whole entry Q61K): as the sequence (P01111 whole entry Q61R) above, with R61K counted along it
Chain of NRAS Q61K (P62937 whole entry): as the sequence (P62937 whole entry) above
Summary of the method: as §2

NRAS WT = NRAS WT (Homo sapiens, UniProt P01111+P62937); test: as above; format: biochemical; details: NRAS WT; read-out: NRAS WT FRET data IC50
Chain of NRAS WT (P01111 whole entry): as the sequence (P01111 whole entry Q61R) above, with R61Q counted along it
Chain of NRAS WT (P62937 whole entry): as the sequence (P62937 whole entry) above
Summary of the method: as §2

KRAS G12S = KRAS G12S (Homo sapiens, UniProt P01116+P62937, G12S); test: as above; format: biochemical
Chain of KRAS G12S (P01116 1-169 isoform P01116-2 G12S limits assumed): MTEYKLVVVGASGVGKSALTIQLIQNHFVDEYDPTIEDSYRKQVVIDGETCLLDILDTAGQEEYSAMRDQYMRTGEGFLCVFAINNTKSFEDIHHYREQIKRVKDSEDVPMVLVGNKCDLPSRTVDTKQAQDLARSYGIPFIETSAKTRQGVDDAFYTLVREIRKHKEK
Chain of KRAS G12S (P62937 whole entry): as the sequence (P62937 whole entry) above
Summary of the method: (§3)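 Here, compound titrations (ten points, factor 3, from 30 μM final) act on nucleotide-bound K-Ras and Cyclophilin A, and ternary complex formation disrupts the RAF RBD interaction.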

NRAS G12C = NRAS G12C (Homo sapiens, UniProt P01111+P62937, G12C); test: as above; format: biochemical
Chain of NRAS G12C (P01111 whole entry G12C): as the sequence (P01111 whole entry Q61R) above, with G12C, R61Q counted along it
Chain of NRAS G12C (P62937 whole entry): as the sequence (P62937 whole entry) above

KRAS G12D = KRAS G12D (Homo sapiens, UniProt P01116+P62937, G12D); test: as above; format: biochemical
Chain of KRAS G12D (P01116 1-169 isoform P01116-2 G12D limits assumed): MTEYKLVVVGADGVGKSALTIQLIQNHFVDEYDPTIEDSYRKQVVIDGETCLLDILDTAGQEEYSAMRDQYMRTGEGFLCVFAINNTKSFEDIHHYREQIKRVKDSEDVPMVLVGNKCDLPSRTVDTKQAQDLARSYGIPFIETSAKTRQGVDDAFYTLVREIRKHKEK
Chain of KRAS G12D (P62937 whole entry): as the sequence (P62937 whole entry) above
Summary of the method: as §3

KRAS G12V = KRAS G12V (Homo sapiens, UniProt P01116+P62937, G12V); test: as above; format: biochemical
Chain of KRAS G12V (P01116 1-169 isoform P01116-2 G12V limits assumed): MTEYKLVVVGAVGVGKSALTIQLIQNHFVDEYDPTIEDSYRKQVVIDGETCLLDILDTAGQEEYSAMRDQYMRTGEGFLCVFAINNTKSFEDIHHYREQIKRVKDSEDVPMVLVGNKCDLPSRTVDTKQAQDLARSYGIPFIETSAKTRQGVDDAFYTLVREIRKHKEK
Chain of KRAS G12V (P62937 whole entry): as the sequence (P62937 whole entry) above
Summary of the method: as §3

KRAS WT = KRAS WT (Homo sapiens, UniProt P01116+P62937); test: as above; format: biochemical
Chain of KRAS WT (P01116 1-169 isoform P01116-2 limits assumed): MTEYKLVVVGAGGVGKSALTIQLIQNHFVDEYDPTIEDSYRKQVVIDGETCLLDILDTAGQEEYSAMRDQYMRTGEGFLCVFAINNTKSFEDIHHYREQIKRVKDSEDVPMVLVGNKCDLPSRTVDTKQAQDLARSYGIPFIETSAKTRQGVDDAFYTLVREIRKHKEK
Chain of KRAS WT (P62937 whole entry): as the sequence (P62937 whole entry) above
Summary of the method: as §3

KRAS G13D = KRAS G13D (Homo sapiens, UniProt P01116+P62937, G13D); test: as above; format: biochemical
Chain of KRAS G13D (P01116 1-169 isoform P01116-2 G13D limits assumed): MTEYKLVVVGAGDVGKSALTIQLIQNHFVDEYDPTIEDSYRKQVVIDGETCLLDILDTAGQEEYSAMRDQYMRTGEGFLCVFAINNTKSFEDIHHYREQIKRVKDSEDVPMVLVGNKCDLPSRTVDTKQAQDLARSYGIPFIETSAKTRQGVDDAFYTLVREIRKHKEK
Chain of KRAS G13D (P62937 whole entry): as the sequence (P62937 whole entry) above
Summary of the method: as §3

KRAS G13C = KRAS G13C (Homo sapiens, UniProt P01116+P62937, G13C); test: as above; format: biochemical
Chain of KRAS G13C (P01116 1-169 isoform P01116-2 G13C): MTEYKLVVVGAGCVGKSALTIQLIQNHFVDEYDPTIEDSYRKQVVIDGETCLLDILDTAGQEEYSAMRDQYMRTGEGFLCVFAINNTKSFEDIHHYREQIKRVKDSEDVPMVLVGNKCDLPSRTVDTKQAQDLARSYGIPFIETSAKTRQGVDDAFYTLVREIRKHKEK
Chain of KRAS G13C (P62937 whole entry): as the sequence (P62937 whole entry) above
Summary of the method: as §3

KRAS G12C = KRAS G12C (Homo sapiens, UniProt P01116+P62937, G12C); test: as above; format: biochemical
Chain of KRAS G12C (P01116 1-169 isoform P01116-2 G12C): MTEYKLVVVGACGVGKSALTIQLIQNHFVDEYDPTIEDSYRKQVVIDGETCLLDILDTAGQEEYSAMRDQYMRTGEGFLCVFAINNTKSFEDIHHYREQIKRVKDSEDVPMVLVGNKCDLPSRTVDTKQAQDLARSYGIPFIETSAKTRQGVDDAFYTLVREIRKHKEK
Chain of KRAS G12C (P62937 whole entry): as the sequence (P62937 whole entry) above
Summary of the method: as §3

[1] = read-out: KRAS G12S FRET data, IC50
[2] = NRAS G12C, read-out: NRAS G12C FRET data IC50
[3] = read-out: KRAS G12D FRET data, IC50
[4] = KRAS G12V, read-out: KRAS G12V FRET data IC50
[5] = KRAS WT, read-out: KRAS WT FRET data IC50
[6] = KRAS G13D, read-out: KRAS G13D FRET data IC50
[7] = read-out: KRAS G13C FRET data, IC50
[8] = read-out: KRAS G12C FRET data, IC50

| IC50 (NCI-H358 (K-Ras G12C)) [nM] | IC50 (NRAS Q61R) [nM] | IC50 (KRAS Q61H) [nM] | IC50 (NRAS Q61K) [nM] | IC50 (NRAS WT) [nM] | IC50 (KRAS G12S; [1]) [nM] | IC50 (NRAS G12C; [2]) [nM] | IC50 (KRAS G12D; [3]) [nM] | IC50 (KRAS G12V; [4]) [nM] | IC50 (KRAS WT; [5]) [nM] | IC50 (KRAS G13D; [6]) [nM] | IC50 (KRAS G13C; [7]) [nM] | IC50 (KRAS G12C; [8]) [nM] | SMILES | IC50 (Capan-1 (K-Ras G12V)) [nM] | further results |
| --- | --- | --- | --- | --- | --- | --- | --- | --- | --- | --- | --- | --- | --- | --- | --- |
| 10 to 100 | 10 to 100 | 10 to 100 | 10 to 100 | 10 to 100 | 100 to 1000 | 10 to 100 | 100 to 1000 | 10 to 100 | 100 to 1000 | 100 to 1000 | 100 to 1000 | 10 to 100 | CCn1c(-c2cccnc2[C@H](C)OC)c2c3cc(ccc31)-c1csc(n1)C[C@H](NC(=O)[C@H](C(C)C)N(C)C(=O)N1CC([C@H](C)OC)C1)C(=O)N1CCC[C@H](N1)C(=O)OCC(C)(C)C2 (atropisomer, axis not shown) [Example A279] | 10 to 100 | – |
| 10 to 100 | 100 to 1000 | 10 to 100 | 10 to 100 | 100 to 1000 | 100 to 1000 | 10 to 100 | 100 to 1000 | 100 to 1000 | 100 to 1000 | 100 to 1000 | 100 to 1000 | 10 to 100 | CCn1c(-c2cccnc2[C@H](C)OC)c2c3cc(ccc31)-c1csc(n1)C[C@H](NC(=O)[C@H](C(C)C)N(C)C(=O)N1CC3(CC(N(C)C)C3)C1)C(=O)N1CCC[C@H](N1)C(=O)OCC(C)(C)C2 (atropisomer, axis not shown) [Example A280] | 10 to 100 | – |
| 10 to 100 | 100 to 1000 | 10 to 100 | 10 to 100 | 100 to 1000 | 100 to 1000 | 10 to 100 | 100 to 1000 | 100 to 1000 | 100 to 1000 | 100 to 1000 | 100 to 1000 | 10 to 100 | CCn1c(-c2cccnc2[C@H](C)OC)c2c3cc(ccc31)-c1csc(n1)C[C@H](NC(=O)[C@H](C(C)C)N(C)C(=O)N1CC(N(C)C3CC3)C1)C(=O)N1CCC[C@H](N1)C(=O)OCC(C)(C)C2 (atropisomer, axis not shown) [Example A285] | 10 to 100 | – |
| 10 to 100 | 100 to 1000 | 10 to 100 | 10 to 100 | 10 to 100 | 100 to 1000 | 10 to 100 | 100 to 1000 | 100 to 1000 | 10 to 100 | 100 to 1000 | 100 to 1000 | 10 to 100 | CCn1c(-c2cccnc2[C@H](C)OC)c2c3cc(ccc31)-c1csc(n1)C[C@H](NC(=O)[C@H](C(C)C)N(C)C(=O)N1CCN(C(=O)CN(C)C)CC1)C(=O)N1CCC[C@H](N1)C(=O)OCC(C)(C)C2 (atropisomer, axis not shown) [Example A290] | 10 to 100 | – |

| SMILES | IC50 (NCI-H358 (K-Ras G12C)) [nM] | IC50 (NRAS Q61R) [nM] | IC50 (KRAS Q61H) [nM] | IC50 (NRAS Q61K) [nM] | IC50 (NRAS WT) [nM] | IC50 (KRAS G12S; [1]) [nM] | IC50 (NRAS G12C; [2]) [nM] | IC50 (KRAS G12D; [3]) [nM] | IC50 (KRAS G12V; [4]) [nM] | IC50 (KRAS WT; [5]) [nM] | IC50 (KRAS G13D; [6]) [nM] | IC50 (KRAS G13C; [7]) [nM] | IC50 (KRAS G12C; [8]) [nM] | IC50 (Capan-1 (K-Ras G12V)) [nM] | further results |
| --- | --- | --- | --- | --- | --- | --- | --- | --- | --- | --- | --- | --- | --- | --- | --- |
| CCn1c(-c2cccnc2[C@H](C)OC)c2c3cc(ccc31)-c1csc(n1)C[C@H](NC(=O)N1CCC[C@@H]1COC)C(=O)N1CCC[C@H](N1)C(=O)OCC(C)(C)C2 (atropisomer, axis not shown) [Example A266] | 100 to 1000 | 100 to 1000 | 10 to 100 | 10 to 100 | 100 to 1000 | – | – | – | – | – | – | – | – | 100 to 1000 | IC50 (KRAS G12S; KRAS G12S FRET data, IC50): 100 to 1000 nM; IC50 (NRAS G12C; NRAS G12C FRET data IC50, NRAS G12C): 10 to 100 nM; IC50 (KRAS G12D; KRAS G12D FRET data, IC50): 100 to 1000 nM; IC50 (KRAS G12V; KRAS G12V FRET data IC50, KRAS G12V): 10 to 100 nM; IC50 (KRAS WT; KRAS WT FRET data IC50, KRAS WT): 100 to 1000 nM; IC50 (KRAS G13D; KRAS G13D FRET data IC50, KRAS G13D): 100 to 1000 nM; IC50 (KRAS G13C; KRAS G13C FRET data, IC50): 10 to 100 nM; IC50 (KRAS G12C; KRAS G12C FRET data, IC50): 10 to 100 nM |
| CCn1c(-c2cc(N3CCN(C)CC3)cnc2[C@H](C)OC)c2c3cc(ccc31)-c1csc(n1)C[C@H](NC(=O)[C@H](C(C)C)N(C)C(=O)N(C)C)C(=O)N1CCC[C@H](N1)C(=O)OCC(C)(C)C2 (atropisomer, axis not shown) [Example A277, (2S)—N-((6^3S,4S,Z)-1^1-ethyl-1^2-(2-((S)-1-methoxyethyl)-5-(4-methylpiperazin-1-yl)pyridin-3-yl)-10,10-dimethyl-5,7-dioxo-6^1,6^2,6^3,6^4,6^5,6^6-hexahydro-1^1H-8-oxa-2(4,2)-thiazola-1(5,3)-indola-6(1,3)-pyridazinacycloundecaphane-4-yl)-3-methyl-2-(1,3,3-trimethylureido)butanamide] | < 10 | 10 to 100 | 10 to 100 | 10 to 100 | 10 to 100 | 10 to 100 | 10 to 100 | 100 to 1000 | 10 to 100 | 10 to 100 | 10 to 100 | 10 to 100 | 10 to 100 | < 10 | – |
